Reference: ChEMBL document CHEMBL1142919, “Naphthoindole-based analogues of tryptophan and tryptamine: synthesis and cytotoxic properties” (Bioorg Med Chem, 2007)
Calls of active or inactive are those of the source. The rule behind the calls is not given here.

Assays:
[1] = Antiproliferative activity against human p53 deficient HCT116 p53-/- cells after 72 hrs by MTT test; format: functional, cell-based; settings: HCT-116, 72 h
K562 [2] = assay: Antiproliferative activity against human K562 cells after 72 hrs by MTT test; format: functional, cell-based; settings: K562, 72 h
HCT-116 [3] = assay: Antiproliferative activity against human HCT116 cells expressing wild-type p53 after 72 hrs by MTT test; format: functional, cell-based; settings: HCT-116, 72 h
K562 [4] = assay: Resistance index, Ratio of IC50 for human drug-resistant K562i/S9 cells to IC50 for human K562 cells; format: functional
[5] = target: T1, DNA topoisomerase 1 (Homo sapiens) (UniProt P11387); assay: Inhibition of topoisomerase 1 assessed as attenuation of DNA relaxation
T1 sequence (whole entry): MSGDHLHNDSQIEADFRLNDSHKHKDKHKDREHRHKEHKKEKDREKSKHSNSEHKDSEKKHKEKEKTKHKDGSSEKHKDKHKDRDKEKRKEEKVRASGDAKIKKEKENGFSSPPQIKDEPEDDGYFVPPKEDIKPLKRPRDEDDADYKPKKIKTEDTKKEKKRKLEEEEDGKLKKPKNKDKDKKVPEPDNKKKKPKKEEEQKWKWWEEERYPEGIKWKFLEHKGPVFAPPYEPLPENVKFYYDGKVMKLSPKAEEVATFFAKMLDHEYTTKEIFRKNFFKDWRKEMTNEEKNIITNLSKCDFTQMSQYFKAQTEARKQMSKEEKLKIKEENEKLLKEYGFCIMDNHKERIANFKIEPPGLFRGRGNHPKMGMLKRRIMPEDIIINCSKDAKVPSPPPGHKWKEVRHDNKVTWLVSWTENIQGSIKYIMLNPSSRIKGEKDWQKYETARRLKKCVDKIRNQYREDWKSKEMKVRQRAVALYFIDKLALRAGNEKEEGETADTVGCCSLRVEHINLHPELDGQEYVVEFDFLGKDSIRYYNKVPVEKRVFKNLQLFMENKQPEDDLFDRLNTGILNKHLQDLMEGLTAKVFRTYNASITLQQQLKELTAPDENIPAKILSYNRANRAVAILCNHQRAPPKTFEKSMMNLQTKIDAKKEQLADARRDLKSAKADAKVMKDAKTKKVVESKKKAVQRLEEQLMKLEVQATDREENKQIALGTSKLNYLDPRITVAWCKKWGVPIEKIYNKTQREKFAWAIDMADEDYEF

[6] = Antiproliferative activity against human multidrug-resistant K562i/S9 cells expressing Pgp after 72 hrs by MTT test; format: functional, cell-based; settings: K562i/S9, 72 h
HCT-116 [7] = assay: Resistance index, Ratio of IC50 for human p53 deficient HCT116 p53-/- cells to IC50 for human wild type HCT116 cells; format: functional
[8] = target: T1, DNA topoisomerase 1 (Homo sapiens); assay: Inhibition of topoisomerase 1 at 3 uM
[9] = target: T1, DNA topoisomerase 1 (Homo sapiens); assay: Inhibition of topoisomerase 1 at >50 uM

Row | IC50 (HCT-116 [3]) [µM] | Activity [9] | SMILES | IC50 [1] [µM] | IC50 (K562 [2]) [µM] | Ratio IC50 (K562 [4]) | Activity [5] | IC50 [6] [µM] | Ratio IC50 (HCT-116 [7]) | Activity [8]
1 | 1.4 | Active | COc1cccc2c1C(=O)c1c(O)c3c(c(O)c1C2=O)C[C@@](O)(C(=O)CO)C[C@@H]3O[C@H]1C[C@H](N)[C@H](O)[C@H](C)O1 [DOXORUBICIN] | 4.4 | – | – | – | – | – | –
2 | > 50 | – | NC(Cc1c[nH]c2c(O)c3c(c(O)c12)C(=O)c1ccccc1C3=O)C(=O)O (stereo unspecified) | – | > 50 | – | – | – | – | –
3 | 14.9 | – | CCOC(=O)C(N)Cc1c[nH]c2c(O)c3c(c(O)c12)C(=O)c1ccccc1C3=O (stereo unspecified) | – | > 50 | – | – | – | – | –

Row | SMILES | IC50 (HCT-116 [3]) [µM] | Activity [9] | IC50 [1] [µM] | IC50 (K562 [2]) [µM] | Ratio IC50 (K562 [4]) | Activity [5] | IC50 [6] [µM] | Ratio IC50 (HCT-116 [7]) | Activity [8]
4 | NCCc1c[nH]c2c(O)c3c(c(O)c12)C(=O)c1ccccc1C3=O | 1.1 | – | 1.2 | 4 | 0.6 | Dose-dependent effect | 2.2 | 1.1 | Active
5 | CC(N)Cc1c[nH]c2c(O)c3c(c(O)c12)C(=O)c1ccccc1C3=O (stereo unspecified) | 4.8 | – | 5 | 12 | 1.1 | – | 13.4 | 1 | –
